Key:
Mice [1] = assay: Glucose tolerance test (GTT), glucose disposal; assay type: in vivo, mouse; conditions: 30 mg/kg
Protocol: (§1) Vehicle is CMC-Tween: 0.5% CMC+0.25% Tween 20 at an appropriate ml/kg. Dextrose dose per mouse=2 g dextrose/kg made from 0.5 g/ml stock dextrose solution. Compound 1 dose per mouse=30 mg/kg in CMC/Tween vehicle made from 4 mg/mL stock solution by adding 50 μL DMSO to 20 mg Compound 1, stirring to make a paste, adding 1 ml CMC/Tween with stirring, sonicating for 8 minutes on energy 05, and adjusting to 5 ml with CMC/Tween.
Glucose Tolerance Test (GTT)/Insulin Test
(§2) Mice (5 per group) were fasted at 6 am for an experiment at noon. Blood glucose was measured from tail nick blood using an Accucheck—Compact Monitoring Kit (Roche Diagnostics, Indianapolis Ind.). Baseline (time=−15 min) blood glucose concentration was determined for all mice and tail nick blood samples were collected. 2 g/kg dextrose (Hospira, Lake Forest, Ill.) was administered orally at time 0. Blood samples were collected from the following mice via tail nick blood draw (˜100 μL) into EDTA microtainer tubes at the following time points: −15, 0, 3, 6, 9, 12, 15, 20, 30 and 120 min. Terminal blood samples were collected from portal vein draws in three mice at t=20. Blood plasma was harvested from blood collected in EDTA microvettes by centrifugation (10 min at […]). Plasma was stored in −80 C freezer to be analyzed for other chemistry measurements.

Mice [2] = assay: Glucose-stimulated insulin secretion (GTT/insulin test, insulin ELISA); assay type: in vivo, mouse; conditions: 30 mg/kg; for Plasma Insulin, AUC, Mean: glucose-stimulated insulin secretion, in ng·min/mL (unit assumed)
Protocol: as §1
as §2, with “Blood samples were collected from the following mice via tail nick blood draw (˜100 μL) into EDTA microtainer tubes at the following time points: −15, 0, 3, 6, 9, 12, 15, 20, 30 and 120 min.” left out
A Mercodia ultrasensitive mouse insulin ELISA kit (Mercodia AB, Uppsala, Sweden) was used in a 96-well coated plate. All reagents and samples were brought to room temperature before use, Calibrator concentrations were 0.07, 0.13, 0.25, 0.63, 1.9, 5.2, 13.0, and 64.0 μg/L, and a calibration curve was prepared for each assay run. To 25 μL calibrator 0 in each well was added 5 μL calibrators and 5 μL of samples/standards in duplicate, then 50 μL dilute enzyme conjugate 11× in enzyme conjugate buffer. This was incubated on a shaker for 2 hours at room temperature (18-25° C.), and each well was washed 5 times in 350 μL wash buffer and aspirated completely. After final wash, plate was inverted and tapped firmly against absorbent paper. 200 μL substrate TMB was added to each well and incubated for 30 minutes. 50 μL stop solution was added to each well, and the plate was placed on the shaker for about 5 seconds to ensure mixing of substrate and stop Solution. Absorbance was measured at 450 nm.

[3] = 2 g/kg dextrose orally at time 0, time 0 min
[4] = 2 g/kg dextrose orally at time 0, time 3 min
[5] = 2 g/kg dextrose orally at time 0, time 6 min
[6] = 2 g/kg dextrose orally at time 0, time 9 min
[7] = 2 g/kg dextrose orally at time 0, time 12 min
[8] = 2 g/kg dextrose orally at time 0, time 15 min
[9] = 2 g/kg dextrose orally at time 0, time 20 min
[10] = 2 g/kg dextrose orally at time 0, time 30 min
[11] = 2 g/kg dextrose orally at time 0, time 120 min
[12] = 2 g/kg dextrose orally at time 0, time −15 min (baseline)

O=c1c2ccccc2nc(-c2ccc(F)cc2)n1NCc1ccc(Br)cc1 [Example 1]
Plasma Glucose, Mean (Mice [1]; [3]): 220.4 mg/dL
Plasma Glucose, Mean (Mice [1]; [4]): 272.2 mg/dL
Plasma Glucose, Mean (Mice [1]; [5]): 332.6 mg/dL
Plasma Glucose, Mean (Mice [1]; [6]): 398.2 mg/dL
Plasma Glucose, Mean (Mice [1]; [7]): 427.2 mg/dL
Plasma Glucose, Mean (Mice [1]; [8]): 430.0 mg/dL
Plasma Glucose, Mean (Mice [1]; [9]): 425.9 mg/dL
Plasma Glucose, Mean (Mice [1]; [10]): 354.6 mg/dL
Plasma Glucose, Mean (Mice [1]; [11]): 213.2 mg/dL
Plasma Glucose, Mean (Mice [1]; [12]): 170.0 mg/dL
Plasma Glucose, AUC, Mean (Mice [1]; glucose tolerance test, 0-120 min): 16400
Plasma Insulin, Mean (Mice [2]; [3]): 1.56 ng/mL
Plasma Insulin, Mean (Mice [2]; [4]): 2.35 ng/mL
Plasma Insulin, Mean (Mice [2]; [5]): 3.24 ng/mL
Plasma Insulin, Mean (Mice [2]; [6]): 3.94 ng/mL
Plasma Insulin, Mean (Mice [2]; [7]): 4.18 ng/mL
Plasma Insulin, Mean (Mice [2]; [8]): 4.05 ng/mL
Plasma Insulin, Mean (Mice [2]; [9]): 3.79 ng/mL
Plasma Insulin, Mean (Mice [2]; [10]): 1.82 ng/mL
Plasma Insulin, Mean (Mice [2]; 2 g/kg dextrose orally at time 0, time 60 min): 1.23 ng/mL
Plasma Insulin, Mean (Mice [2]; [11]): 1.17 ng/mL
Plasma Insulin, Mean (Mice [2]; [12]): 1.78 ng/mL
Plasma Insulin, AUC, Mean (Mice [2]; 0-15 min): 35.15
Plasma Insulin, AUC, Mean (Mice [2]; 0-30 min): 68.39

— patent US20090035306A1 (KALYPSYS, INC., priority 2006, published 2009)
